Results from publication PMC8321240, “Cell-Type-Specific High Throughput Toxicity Testing in Human Midbrain Organoids” (Frontiers in Molecular Neuroscience, 2021).
pIC50: −log10 of the molar value.

Tests used:
[1] = system: 2D cultured dopaminergic neurons; design: method as in Sharma et al., 2010; conditions: ref Sharma et al., 2010; cited from earlier work
[2] = system: automated midbrain organoids (AMOs); assay: Primary organoid viability screen (ATP-based CellTiter-Glo 3D); assay type: cell-based, human; conditions: approx. 100 μM, 48 or 96 h, two AMO lines
[3] = system: 2D-cultured midbrain dopaminergic (mDA) neurons; assay: Viability of 2D-cultured mDA neurons (CellTiter-Glo 2.0) in the 2D vs 3D comparison; assay type: cell-based; conditions: Homo sapiens, Neuron, 2D mDA neurons, 48 h exposure from day 50
Experimental: To compare the toxic effects of compounds on AMOs and 2D-cultured midbrain dopaminergic neurons, we seeded and cultured both in parallel and generated them from the same smNPC starting cell population. For 2D dopaminergic neuron differentiation, smNPCs were seeded in 1% (v/v in KO-DMEM/F-12) Matrigel-coated 6-well plates and standard smNPC medium, following digestion by accutase as described above. From day 2 onwards, they were treated identically with the AMOs (i.e., they received the same media at the same timepoints). To work with the 2D dopaminergic neurons in a screening setting (and have the same plate format as the AMOs), we reseeded them to flat-bottom 96-well plates (“μCLEAR”, black, Greiner) at a density of 70,000 cells/well on day 48. On day 49, the medium of both 2D mDA neurons and 3D AMOs was exchanged to tox medium. The next day, we treated them with different concentrations (0.01, 0.1, 1, 10, 50, 100, 200, 500, and 1,000 μM; controls received the corresponding solvent at an amount equivalent to the highest compound concentration; n = 6 per concentration) of the compounds lindane (Sigma-Aldrich, in ethanol) and 6-hydroxydopamine hydrochloride (Sigma Aldrich, in DMSO) in tox medium. After 48 h of incubation, we measured the samples’ viability. For the AMOs, we used the CellTiter-Glo 3D cell viability assay as described above. We measured the 2D mDA neuron viability with the CellTiter-Glo 2.0 cell viability assay (Promega) according to the manufacturer’s instructions. In short, we brought the sample plates and reagents to room temperature for 30 min. We adjusted the media volume of the samples to 50 μl and added an equal volume (50 μl) of the CellTiter-Glo 2.0 reagent. We let the plate shake for 2 min at 900 rpm on a Thermomixer and then incubated them for 10 min at room temperature and protected from light. Immediately afterward, we measured the luminescence on a Synergy Mx plate reader. We outputted the results to Microsoft Excel and GraphPad Prism v9.0.1 for reformatting, plotting, and analysis. Data processing was performed as outlined for the CellTiter-Glo 3D-based viability assay above, except for the averaging of technical replicates, as measurements were performed directly in the culture plate without additional technical replicates.
All other data analysis steps including the statistical analysis to identify significant differences in toxicity between 2D and 3D (via multiple unpaired t-tests with the same parameters as above, corrected for using the Bonferroni-Dunn method, and considering padj <0.05 as significant), as well as dose-response curve fitting, were performed as described in detail above. The IC50 values were taken from the same regression/analysis as the dose-response curves.

[4] = system: automated midbrain organoids (AMOs); assay: Viability of 3D AMOs (CellTiter-Glo 3D) in the 2D vs 3D comparison; assay type: cell-based, human; conditions: for pIC50: Homo sapiens, 48 h exposure from day 50
Experimental: We cultured AMOs for 47 days in our automated system as described above. On day 47, we exchanged the organoid medium to a minimal tox medium (TM, consisting of DMEM/F-12 with 1% N2 supplement and 1% penicillin/streptomycin/glutamine) to reduce possible interference from antioxidants in the B27 media supplement. The next day, we treated the AMOs with the compounds from the library at a concentration of 100 μM in TM with some deviations due to solubility (see Supplementary Table 1 for a complete list of compounds including their final concentrations in the screen). DMSO control samples contained 0.5% (v/v) DMSO, which is equivalent to the amount of solvent in the samples that received compound treatment. After 48 h of incubation with the compounds, we either directly processed the organoids for the 48-h time point or renewed the compounds in TM once to achieve 96 h of incubation. Following either 48 or 96 h of compound incubation, we used the CellTiter-Glo 3D cell viability assay (Promega) to measure the viability of individual organoids, as previously described (Renner et al., [2020]). Briefly, the 96-well plates of AMOs and the reagents were brought to room temperature for 30 min. We adjusted the media volume of each well to 55 μl and added an equal volume (55 μl) of the CellTiter-Glo 3D reagent. Next, the samples were shaken on a Thermomixer (Eppendorf) at 900 rpm for 5 min and then incubated for 25 min at room temperature while protected from light. To minimize signal cross-talk between adjacent wells, we transferred the contents of the clear 96-well culture plates to white/opaque 384-well Lumitrac plates (Greiner) with two technical replicates (20 μl each) per sample, after the incubation. We recorded the luminescence immediately after the transfer using a Synergy Mx plate reader (BioTek). We outputted the results to Microsoft Excel for reformatting and then transferred them to GraphPad Prism v9.0.1 (Graphpad Software, Inc.) for plotting and statistical analysis.
To compare the toxic effects of compounds on AMOs and 2D-cultured midbrain dopaminergic neurons, we seeded and cultured both in parallel and generated them from the same smNPC starting cell population. For 2D dopaminergic neuron differentiation, smNPCs were seeded in 1% (v/v in KO-DMEM/F-12) Matrigel-coated 6-well plates and standard smNPC medium, following digestion by accutase as described above. From day 2 onwards, they were treated identically with the AMOs (i.e., they received the same media at the same timepoints). To work with the 2D dopaminergic neurons in a screening setting (and have the same plate format as the AMOs), we reseeded them to flat-bottom 96-well plates (“μCLEAR”, black, Greiner) at a density of 70,000 cells/well on day 48. On day 49, the medium of both 2D mDA neurons and 3D AMOs was exchanged to tox medium. The next day, we treated them with different concentrations (0.01, 0.1, 1, 10, 50, 100, 200, 500, and 1,000 μM; controls received the corresponding solvent at an amount equivalent to the highest compound concentration; n = 6 per concentration) of the compounds lindane (Sigma-Aldrich, in ethanol) and 6-hydroxydopamine hydrochloride (Sigma Aldrich, in DMSO) in tox medium. After 48 h of incubation, we measured the samples’ viability. For the AMOs, we used the CellTiter-Glo 3D cell viability assay as described above. We measured the 2D mDA neuron viability with the CellTiter-Glo 2.0 cell viability assay (Promega) according to the manufacturer’s instructions. In short, we brought the sample plates and reagents to room temperature for 30 min. We adjusted the media volume of the samples to 50 μl and added an equal volume (50 μl) of the CellTiter-Glo 2.0 reagent. We let the plate shake for 2 min at 900 rpm on a Thermomixer and then incubated them for 10 min at room temperature and protected from light. Immediately afterward, we measured the luminescence on a Synergy Mx plate reader. […]

## Cl[C@H]1[C@H](Cl)[C@@H](Cl)[C@@H](Cl)[C@H](Cl)[C@H]1Cl [lindane]
[1]
  toxicity of lindane alone: only mild toxicity
[2]
  toxicity in the primary screens: strong possible toxicity
[3]; AMO line 1 cell line
  pIC50: 3.70
[3]; AMO line 2 cell line
  pIC50: 3.70
[4]; AMO line 1, 48 h
  concentrations with significant 2D vs 3D viability difference: ≥ 200 µM
[4]; AMO line 2, 48 h
  concentrations with significant 2D vs 3D viability difference: 200 µM
[4]; AMO line 1, 3D
  pIC50: 3.89
[4]; AMO line 2, 3D
  pIC50: 3.89
[4]; both cell lines, 48 h, 0.01-1,000 μM, padj < 0.05
  toxicity in 3D AMOs compared with 2D-cultured dopaminergic neurons: significantly more toxic in AMOs than in the 2D-cultured dopaminergic neurons
